Calls of active or inactive are those of the source. No cut-off for these calls is given here.
Columns and labels:
[1] = Inhibition of firefly luciferase expression in deltaFZD1-10 HEK293 cells incubated for 24 hrs by microplate reader analysis; assay type: functional, cell-based; settings: Homo sapiens, HEK293, 24 h
HEK293 [2] = test: Effect on renilla luciferase level deltaFZD1-10 HEK293 cells assessed as reduction in Rluc-bioluminescence at 0.1 to 1000 nM incubated for 24 hrs by luminescence based analysis; assay type: functional, cell-based; settings: Homo sapiens, dose 0.1-1000 nM
HEK293 [3] = test: Inhibition of Wnt/beta-catenin signalling in deltaFZD1-10 HEK293 cells transfected with FZD7-DEP-Clamp assessed as effect on WNT-3A induced FZD7-DEP-Clamp signal using furimazine as substrate at 10 uM preincubated for 10 mins followed by WNT-3A stimulation and measured every 2 mins for 1 hr by luminescence based analysis; assay type: cell-based; settings: Homo sapiens, time 70.0 min
HEK293 [4] = test: Inhibition of Wnt/beta-catenin signalling in deltaFZD1-10 HEK293 cells transfected with HiBit-FZD7 assessed as reduction in topflash signal at 10 uM incubated for 24 hrs by dual luciferase reporter assay; assay type: cell-based; settings: Homo sapiens
HEK293 [5] = test: Inhibition of firefly luciferase expression in deltaFZD1-10 HEK293 cells assessed as reduction in bioluminescence incubated for 24 hrs by microplate reader analysis; assay type: functional, cell-based; settings: Homo sapiens, dose 0.1-1000 nM
[6] = Inhibition of Wnt/beta-catenin signalling in deltaFZD1-10 HEK293 cells transfected with HiBit-FZD7 assessed as inhibition of CHIR99021-induced TOPFlash ratio incubated for 24 hrs by dual luciferase reporter assay; assay type: cell-based; settings: Homo sapiens, HEK293, 24 h
HEK293 [7] = test: Effect on Nano-luciferase activity in deltaFZD1-10 HEK293 cells at 0.1 to 1000 nM incubated for 24 hrs under TK promoter by luminescence based analysis; assay type: functional, cell-based; settings: Homo sapiens, dose 0.1-1000 nM
MEF = test: Effect on WNT-3A induced Axin2 mRNA expression in mouse MEF cells at 10 uM stimulated with WNT-3A prior to compound addition and measured after 24 hrs by qPCR analysis; assay type: functional, cell-based
HEK293 [8] = test: Inhibition of Wnt/beta-catenin signalling in deltaFZD1-10 HEK293 cells transfected with HiBit-FZD7 assessed as reduction in Wnt3a induced topflash signal at 10 uM pre-stimulated with Wnt3a followed by compound addition and measured after 24 hrs by dual luciferase reporter assay; assay type: cell-based; settings: Homo sapiens

- IC50 [1]: 23.7 nM
- IC50 ([6]; read-out: IC50): 33 nM
- IC50 ([6]; read-out: pIC50 (converted)): 33.9 nM
Structure (SMILES): Cc1ccc(C(=O)Nc2ccc(SCC(=O)Nc3nc(-c4ccccc4)cs3)cc2)c(C)c1
- Activity (HEK293 [2]): inactive
- inhibition (HEK293 [3]): inactive
- inhibition (HEK293 [4]): Active
- inhibition (HEK293 [5]): Dose-dependent-effect
- Activity (HEK293 [7]): inactive
- Activity (MEF): inactive
- inhibition (HEK293 [8]): Active

— ChEMBL document CHEMBL6120990, “A Putative Frizzled 7-Targeting Compound Acts as a Firefly Luciferase Inhibitor” (J Med Chem, 2024)
